Reference: patent publication US11352354B2, “Substituted penta-fused hexa-heterocyclic compounds, preparation method therefor, drug combination and use thereof” (Xiamen University, priority 2017, dated 2022)

Assays:
MDA-MB-231 cells = test: Vacuolation of MDA-MB-231 cells caused by inhibition of compounds on PIKfyve (microscopy); assay type: cell-based; settings: MDA-MB-231 cells
Source text: I. Determination of Vacuolation of MDA-MB-231 Cells Caused by Inhibition of Compounds on PIKfyve
When the activity of pikfyve kinase is inhibited, vacuoles will be produced in cytoplasm. By observing the number of vacuoles under a microscope, the ability of compounds to inhibit the activity of pikfyve kinase can be known.
1. Cell plating: cells in logarithmic growth phase were made into a single cell suspension, counted with a cell counter and diluted to a cell concentration of about 2×10^5/mL. Then, the cells were inoculated into a 12-well plate, and cultured in a 37° C., 5% CO2 incubator.
3. Vacuolation test: after 24 and 48 hours of culture, photos were taken under an […] to observe the degree of vacuolation.
(In the table, “+” represents the degree of vacuolation; more “+” indicates more obvious vacuolation; “−” represents no vacuolation)

JeKo-1 cells = test: Tumor cell growth inhibition by MTS method, JeKo-1; assay type: cell-based; settings: Homo sapiens, JeKo-1, 120 h, 5 days of culture; for inhibition at 10 µM: read-out: cell growth inhibition rate of compounds at 10 μM
Protocol: III. Determination of IC50 Value of Compound for Inhibiting Tumor Cell Growth by MTS Method
1. Cell plating: cells in logarithmic growth phase were counted and inoculated in a 96-well plate (20000 cells per well).
2. Administrating agent to cell: 10 mM compound mother solution in DMSO was subjected to 3 fold-gradient dilution, to set 8 concentrations, which were then added to various wells, with three replicates for each concentration, and three blank wells (only culture medium) and three negative controls (containing 0.1% DMSO) on each plate.
3. […] The OD value at 490 nm was measured with microplate reader OD490. The cell growth inhibition rate was calculated by the following formula: Cell growth inhibition rate %=1−(ODexperimental group−ODblank group)/(ODnegative group−ODblank group)×100%
The semi-inhibitory concentration IC50 of the compound acting on cell growth was calculated using GradPad Prism 5 software according to the measured cell growth inhibition rate.
In the following table it lists the IC50 value or the inhibition rates of some compounds at 10 μM against JeKo-1 cells

IC50 (JeKo-1 cells) | Structure (SMILES) | degree of vacuolation, 1 μM, 24 h (MDA-MB-231 cells) | degree of vacuolation, 1 μM, 48 h (MDA-MB-231 cells) | degree of vacuolation, 10 μM, 24 h (MDA-MB-231 cells) | degree of vacuolation, 10 μM, 48 h (MDA-MB-231 cells) | inhibition at 10 µM (JeKo-1 cells)
2130 nM | Cc1ccc(C(=O)Nc2ccc(CN3CCN(C)CC3)c(C(F)(F)F)c2)cc1Nc1cc(-c2ccncc2)nc2[nH]ccc12 [I-a-25] | + | + | + | + | 
1600 nM | Cc1ccc(NC(=O)c2cccc(C(F)(F)F)c2)cc1Nc1cc(-c2ccncc2)nc2c1ccn2C [I-b-2] | − | − | ++ | ++ | 
5140 nM | O=C(Nc1cccc(C(F)(F)F)c1)c1cccc(Nc2cc(-c3cccnc3)nc3sccc23)c1 [VIII-a-5] | − | + | + | + | 
6130 nM | Cc1ccc(NC(=O)c2cccc(C(F)(F)F)c2)cc1Nc1cc(-c2ccncc2)c2cc[nH]c2n1 [I-c-11] | ++ | ++ | ++ | ++ | 
6780 nM | Cn1ncc2c(NCc3cccnc3)nc(-c3cccc(NC(=O)Nc4cccc(C(F)(F)F)c4)c3)nc21 [III-b-14] | + | + | + | + | 
939 nM | Cc1ccc(C(=O)Nc2cccc(C(F)(F)F)c2)cc1Nc1nc(-c2cccnc2)nc2c1cnn2C [III-b-1] | + | ++ | + | ++ | 
 | Cc1ccc(NC(=O)c2cccc(C(F)(F)F)c2)cc1Nc1nc(-c2cccnc2)nc2ccn(C)c12 [V-b-1] | ++ | ++ | ++ | ++ | 12.3%
2710 nM | O=C(Nc1cccc(Nc2cc(-c3cccnc3)nc3sccc23)c1)c1cccc(C(F)(F)F)c1 [VIII-a-1] | ++ | ++ | ++ | ++ | 
6320 nM | O=C(Nc1cccc(C(F)(F)F)c1)c1cccc(Nc2cc(-c3ccncc3)nc3sccc23)c1 [VIII-a-6] | + | + | + | + | 
7120 nM | Cc1ccc(C(=O)Nc2cccc(C(F)(F)F)c2)cc1Nc1nc(-c2cccnc2)nc2c1ncn2C [IV-b-2] | + | + | + | + | 
 | Cc1ccc(C(=O)Nc2cccc(C(F)(F)F)c2)cc1Nc1nc(-c2ccncc2)nc2[nH]cnc12 [IV-a-2] | + | ++ | + | ++ | 19%
1520 nM | Cc1ccnc(Nc2nc(-c3cccc(NC(=O)c4ccc(N)nc4)c3)nc3ccsc23)c1 [VII-a-19] | − | − | − | − | 
4860 nM | Cc1ccc(C(=O)Nc2cccc(C(F)(F)F)c2)cc1Nc1nc(-c2cccc(Cl)c2)nc2c1cnn2C [III-b-3] | − |  | − |  | 
2670 nM | Cc1ccc(Nc2nc(-c3cccc(NC(=O)c4cccc(C(F)(F)F)c4)c3)nc3ccsc23)cn1 [VII-a-15] | + | + | + | + | 
2560 nM | Cc1ccnc(Nc2nc(-c3cccc(NC(=O)c4cccc(C(F)(F)F)c4)c3)nc3ccsc23)c1 [VII-a-18] | + | + | + | + | 
1150 nM | Cc1ccc(Nc2nc(-c3cccc(NC(=O)c4ccc(N)nc4)c3)nc3ccsc23)nc1 [VII-a-17] | − | − | − | − | 
 | Cn1ncc2c(NCc3cccnc3)nc(-c3cccc(NC(=S)Nc4cccc(C(F)(F)F)c4)c3)nc21 [III-b-15] | − | − | + | + | 24.1%
2770 nM | Cc1ccc(NC(=O)c2cccc(C(F)(F)F)c2)cc1Nc1cc(-c2cccnc2)nc2c1ccn2C [I-b-1] | ++ | ++ | +++ | +++ | 

IC50 (JeKo-1 cells) | Structure (SMILES) | degree of vacuolation, 1 μM, 24 h (MDA-MB-231 cells) | degree of vacuolation, 1 μM, 48 h (MDA-MB-231 cells) | degree of vacuolation, 10 μM, 24 h (MDA-MB-231 cells) | degree of vacuolation, 10 μM, 48 h (MDA-MB-231 cells) | inhibition at 10 µM (JeKo-1 cells)
 | Cc1ccc(NC(=O)c2cccc(C(F)(F)F)c2)cc1Nc1nc(-c2cccnc2)nc2[nH]ccc12 [II-a-1] |  | + |  | + | 17.3%
2000 nM | Cc1ccc(C(=O)Nc2cccc(C(F)(F)F)c2)cc1Nc1nc(-c2cccnc2)c2cnn(C)c2n1 [III-c-1] |  |  |  |  | 
 | Cc1ccc(C(=O)Nc2cccc(F)c2)cc1Nc1nc(-c2cccnc2)cn2c(Br)cnc12 [VI-b-5] |  |  |  |  | 16.9%
 | Cc1ccc(C(=O)Nc2ccc(CN3CCN(C)CC3)c(C(F)(F)F)c2)cc1Nc1cc(-c2cccnc2)nc2c1ccn2C [I-b-5] | − | − | + | + | 
 | Cc1ccc(NC(=O)c2cccc(C(F)(F)F)c2)cc1Nc1cc(-c2ccncc2)nc2[nH]ccc12 [I-a-10] | − | − | ++ | ++ | 
 | Cc1ccc(C(=O)Nc2ccc(CN3CCN(C)CC3)c(C(F)(F)F)c2)cc1Nc1nc(-c2ccncc2)nc2[nH]cnc12 [IV-a-5] | + | − | + | − | 
 | O=C(Nc1cccc(C(F)(F)F)c1)c1cccc(Nc2cc(-c3cccnc3)nc3[nH]ccc23)c1 [I-a-30] | + | + | + | + | 
7490 nM | Cc1ccc(NC(=O)c2cccc(C(F)(F)F)c2)cc1Nc1nc(-c2cccnc2)cn2ccnc12 [VI-a-1] |  |  |  |  | 
 | Cc1ccc(C(=O)Nc2cccc(Cl)c2)cc1Nc1cc(-c2cccnc2)nc2[nH]ccc12 [I-a-35] | + | ++ | + | ++ | 
 | COc1cccc(NC(=O)c2ccc(C)c(Nc3cc(-c4cccnc4)nc4[nH]ccc34)c2)c1 [I-a-32] | + | ++ | + | ++ | 
 | COc1ccc(Br)cc1NC(=O)Nc1cccc(-c2nc(NCc3cccnc3)c3c(ccn3C)n2)c1 [V-b-29] | + | − | − | − | 
 | Cc1ccc(C(=O)Nc2cccc(OC(F)(F)F)c2)cc1Nc1nc(-c2cccnc2)nc2c1ncn2C [IV-b-11] | + | + |  | + | 
 | CN1CCN(Cc2cc(NC(=O)c3cccc(Nc4cc(-c5cccnc5)nc5[nH]ccc45)c3)cc(C(F)(F)F)c2)CC1 [I-a-26] | − | − | − | − | 
 | Cc1ccc(NC(=O)c2cccc(C(F)(F)F)c2)cc1Nc1nc(-c2cccnc2)cn2c(Br)cnc12 [VI-b-1] |  |  |  |  | 17.5%
 | Cc1ccc(C(=O)Nc2ccc(CN3CCN(C)CC3)c(C(F)(F)F)c2)cc1Nc1nc(-c2ccncc2)nc2c1ncn2C [IV-b-10] |  | − |  | − | 
 | Cc1ccc(C(=O)Nc2cccc(C(F)(F)F)c2)cc1Nc1nc(-c2cccnc2)cn2c(Br)cnc12 [VI-b-2] |  |  |  |  | 14.7%
 | Cc1ccc(C(=O)Nc2ccc(CN3CCN(C)CC3)c(C(F)(F)F)c2)cc1Nc1nc(-c2ccncc2)cn2ccnc12 [VI-a-8] |  | − |  | − | 
